In patent US6362369B1, “Phthalic acid diamide derivatives fluorine-containing aniline compounds as starting material, agricultural and horticultural insecticides, and a method for application of the insecticides” (Nihon Nohyaku Co., Ltd., priority 1997, dated 2002):

Experiments:
Type in all cases: in vivo
[1] = system: diamondback moth (Plutella xylostella); assay: Insecticidal effect on diamondback moth (Test Example 1); conditions: for Insecticidal effect on diamondback moth (Test Example 1), judged grade: mortality judged according to the criterion shown in Test Example 1; for Insecticidal effect, Test Example 1 / Insecticidal effect (Test Example 1), judged from mortality: diamondback moth; for Insecticidal effect (Test Example 1), judged from mortality: judged by the criterion of Test Example 1
In short: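 Chinese cabbage seedlings carrying eggs laid by released adult moths were immersed in treatment, air-dried and held at 25° C. Hatched insects were counted six days after immersion, and mortality was calculated and scored against a fixed criterion. Three replicate groups of 10 insects were used.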

[2] = system: common cutworm (Spodoptera Litura); assay: Insecticidal effect on common cutworm (Test Example 2); conditions: 500 ppm, 25° C.; for Insecticidal effect on common cutworm (Test Example 2), judged grade / Insecticidal effect (Test Example 2), judged from mortality: cabbage leaf dip; for Insecticidal effect on common cutworm (Test Example 2), judged grade: second-instar larvae; for Insecticidal effect on common cutworm (Test Example 2), judged grade / Insecticidal effect, Test Example 2: eight days after inoculation; for Insecticidal effect, Test Example 2: cabbage leaf immersed; for Insecticidal effect (Test Example 2), judged from mortality: 8 days after inoculation
In short: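 Mortality was scored 8 days post-inoculation, using three groups of 10 second-instar larvae kept at 25 °C in closed 9 cm dishes on air-dried treated material. The insecticidal effect was graded from calculated mortality by a set criterion.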

[3] = system: rice leafroller (Cnaphalocrocis medinalis); assay: Insecticidal effect on rice leafroller (Test Example 3); conditions: 500 ppm, 25° C., humidity 70%; for Insecticidal effect on rice leafroller (Test Example 3), judged grade / Insecticidal effect (Test Example 3), judged from mortality: rice lamina dip; for Insecticidal effect on rice leafroller (Test Example 3), judged grade: third-instar larvae; for Insecticidal effect on rice leafroller (Test Example 3), judged grade / Insecticidal effect, Test Example 3: four days after inoculation; for Insecticidal effect, Test Example 3: rice lamina immersed; for Insecticidal effect (Test Example 3), judged from mortality: 4 days after inoculation
In short: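 Groups of 10 third-instar larvae, in triplicate, are placed on air-dried lamina resting on wet filter paper. Incubation runs four days at 25° C with 70% humidity before survivors and dead are tallied.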

[4] = judged by the mortality criterion of Test Example 1
[5] = second-instar larvae of common cutworm
[6] = third-instar larvae of rice leafroller
[7] = mortality judged by criterion of Test Example 1
[8] = common cutworm second-instar larvae
[9] = rice leafroller third-instar larvae

COc1ccc(NC(=O)c2cccc([N+](=O)[O-])c2C(=O)NC(C)C)c(C)c1C [compound 689]
Insecticidal effect on diamondback moth (Test Example 1), judged grade [1]: A (100) | Insecticidal effect on common cutworm (Test Example 2), judged grade [2]: D (79-50) | Insecticidal effect on rice leafroller (Test Example 3), judged grade [3]: A (100)

Cc1cc(C(F)(F)C(F)(F)F)ccc1NC(=O)c1cccc(Cl)c1C(=O)NC(C)(C)C [compound 932]
Insecticidal effect on diamondback moth (Test Example 1), judged grade [1]: A (100) | Insecticidal effect on common cutworm (Test Example 2), judged grade [2]: A (100) | Insecticidal effect on rice leafroller (Test Example 3), judged grade [3]: A (100)

Cc1cc(C(F)(F)C(F)(F)F)ccc1NC(=O)c1cccc(Br)c1C(=O)NC(C)C [compound 278]
Insecticidal effect, Test Example 1 [1, 4]: A (100) | Insecticidal effect, Test Example 2 [2, 5]: A (100) | Insecticidal effect, Test Example 3 [3, 6]: A (100)

CCN(CC)C(=O)c1c(Cl)cccc1C(=O)Nc1ccc(OC(F)(F)C(F)F)cc1C [compound 1539]
Insecticidal effect (Test Example 1), judged from mortality [1]: A (100) | Insecticidal effect (Test Example 2), judged from mortality [2, 5]: A (100) | Insecticidal effect (Test Example 3), judged from mortality [3, 6]: A (100)

Cc1cc(SC(F)(F)C(F)(F)F)ccc1NC(=O)c1cccc(Cl)c1C(=O)NC(C)C [compound 907]
Insecticidal effect on diamondback moth (Test Example 1), judged grade [1]: A (100) | Insecticidal effect on common cutworm (Test Example 2), judged grade [2]: A (100) | Insecticidal effect on rice leafroller (Test Example 3), judged grade [3]: A (100)

CC(C)(C)NC(=O)c1c(I)cccc1C(=O)Nc1ccc2c(c1)OC(F)(F)C(F)(F)O2 [compound 1067]
Insecticidal effect, Test Example 1 [1, 7]: A (100) | Insecticidal effect, Test Example 2 [2, 8]: A (100) | Insecticidal effect, Test Example 3 [3, 9]: A (100)

CC(C)NC(=O)c1ccccc1C(=O)Nc1ccc(OC(F)(F)C(F)OC(F)(F)C(F)(F)C(F)(F)F)cc1 (stereo not drawn) [compound 30]
Insecticidal effect, Test Example 1 [1, 4]: A (100) | Insecticidal effect, Test Example 2 [2, 5]: A (100) | Insecticidal effect, Test Example 3 [3, 6]: A (100)

C=CCN(CC=C)C(=O)c1c(I)cccc1C(=O)Nc1ccc(C(F)(F)C(F)(F)F)cc1C [compound 1045]
Insecticidal effect, Test Example 1 [1, 7]: A (100) | Insecticidal effect, Test Example 2 [2, 8]: A (100) | Insecticidal effect, Test Example 3 [3, 9]: A (100)

CCC(C)(C)NC(=O)c1c(F)cccc1C(=O)Nc1ccc(C(F)(F)C(F)(F)F)cc1C [compound 1152]
Insecticidal effect, Test Example 1 [1, 7]: A (100) | Insecticidal effect, Test Example 2 [2, 8]: A (100) | Insecticidal effect, Test Example 3 [3, 9]: A (100)

CCNC(=O)c1c(Cl)cccc1C(=O)Nc1ccc(C(F)(F)C(F)(F)F)cc1Cl [compound 1489]
Insecticidal effect (Test Example 1), judged from mortality [1]: A (100) | Insecticidal effect (Test Example 2), judged from mortality [2, 5]: A (100) | Insecticidal effect (Test Example 3), judged from mortality [3, 6]: A (100)

Cc1cc(I)ccc1NC(=O)c1cccc(I)c1C(=O)NC(C)C [compound 367]
Insecticidal effect, Test Example 1 [1, 4]: A (100) | Insecticidal effect, Test Example 2 [2, 5]: A (100) | Insecticidal effect, Test Example 3 [3, 6]: A (100)

Cc1cc(C(F)(F)C(F)(F)F)ccc1NC(=O)c1cccc(I)c1C(=O)NCC(C)C [compound 1005]
Insecticidal effect, Test Example 1 [1, 7]: A (100) | Insecticidal effect, Test Example 2 [2, 8]: A (100) | Insecticidal effect, Test Example 3 [3, 9]: A (100)

CC(C)NC(=O)c1c(Cl)cccc1C(=O)Nc1ccc(OC(F)F)cc1C(F)(F)F [compound 163]
Insecticidal effect, Test Example 1 [1, 4]: A (100) | Insecticidal effect, Test Example 2 [2, 5]: A (100) | Insecticidal effect, Test Example 3 [3, 6]: A (100)

Cc1c(Cl)ccc(NC(=O)c2cccc([N+](=O)[O-])c2C(=O)NC(C)C)c1C [compound 669]
Insecticidal effect on diamondback moth (Test Example 1), judged grade [1]: A (100) | Insecticidal effect on common cutworm (Test Example 2), judged grade [2]: D (79-50) | Insecticidal effect on rice leafroller (Test Example 3), judged grade [3]: A (100)

Cc1cc(C(F)(C(F)(F)F)C(F)(F)F)ccc1NC(=O)c1cccc(I)c1C(=O)NC(C)c1cccs1 (stereo not drawn) [compound 1800]
Insecticidal effect (Test Example 1), judged from mortality [1]: A (100) | Insecticidal effect (Test Example 2), judged from mortality [2, 5]: A (100) | Insecticidal effect (Test Example 3), judged from mortality [3, 6]: A (100)

Cc1cc(C(F)(F)C(F)(F)F)ccc1NC(=O)c1cccc(Cl)c1C(=O)NCc1cccc(Cl)c1 [compound 1335]
Insecticidal effect, Test Example 1 [1, 7]: A (100) | Insecticidal effect, Test Example 2 [2, 8]: C (89-80) | Insecticidal effect, Test Example 3 [3, 9]: A (100)

CC(C)(C)NC(=O)c1c(Cl)cccc1C(=O)Nc1ccc2c(c1)OC(F)(F)O2 [compound 1104]
Insecticidal effect, Test Example 1 [1, 7]: A (100) | Insecticidal effect, Test Example 2 [2, 8]: A (100) | Insecticidal effect, Test Example 3 [3, 9]: A (100)

Cc1cc(C(F)(F)C(F)(F)F)ccc1NC(=O)c1cccc(Cl)c1C(=O)N[C@H](C)CO [compound 1460]
Insecticidal effect (Test Example 1), judged from mortality [1]: A (100) | Insecticidal effect (Test Example 2), judged from mortality [2, 5]: C (89-80) | Insecticidal effect (Test Example 3), judged from mortality [3, 6]: A (100)

Cc1cc(NC(=O)c2cccc(I)c2C(=O)NC(C)(C)C)ccc1C(F)(F)C(F)(F)F [compound 1552]
Insecticidal effect (Test Example 1), judged from mortality [1]: A (100) | Insecticidal effect (Test Example 2), judged from mortality [2, 5]: A (100) | Insecticidal effect (Test Example 3), judged from mortality [3, 6]: A (100)

Cc1cc(C(F)(F)C(F)(F)F)ccc1NC(=O)c1cccc(Cl)c1C(=O)NC(C)(C)C#Cc1ccc(C(F)(F)F)cc1 [compound 1585]
Insecticidal effect (Test Example 1), judged from mortality [1]: A (100) | Insecticidal effect (Test Example 2), judged from mortality [2, 5]: A (100) | Insecticidal effect (Test Example 3), judged from mortality [3, 6]: A (100)

Cc1cc(OC(F)(F)C(F)F)ccc1NC(=O)c1ccccc1C(=O)NC(C)(C)C [compound 1060]
Insecticidal effect, Test Example 1 [1, 7]: A (100) | Insecticidal effect, Test Example 2 [2, 8]: A (100) | Insecticidal effect, Test Example 3 [3, 9]: A (100)

CCC(COC)NC(=O)c1c(I)cccc1C(=O)Nc1ccc(C(F)(F)C(F)(F)F)cc1C (stereo not drawn) [compound 1013]
Insecticidal effect, Test Example 1 [1, 7]: A (100) | Insecticidal effect, Test Example 2 [2, 8]: A (100) | Insecticidal effect, Test Example 3 [3, 9]: A (100)

CC(C)NC(=O)c1c(Cl)cccc1C(=O)Nc1ccc(S(=O)(=O)C(F)(F)F)cc1 [compound 1078]
Insecticidal effect, Test Example 1 [1, 7]: A (100) | Insecticidal effect, Test Example 2 [2, 8]: A (100) | Insecticidal effect, Test Example 3 [3, 9]: A (100)

Cc1cc(C(F)(F)C(F)(F)F)ccc1NC(=O)c1cccc(Cl)c1C(=O)NC(C)(C)CO [compound 1317]
Insecticidal effect, Test Example 1 [1, 7]: A (100) | Insecticidal effect, Test Example 2 [2, 8]: C (89-80) | Insecticidal effect, Test Example 3 [3, 9]: A (100)

Cc1cc(OC(F)F)ccc1NC(=O)c1cccc(Cl)c1C(=O)NC(C)C [compound 138]
Insecticidal effect, Test Example 1 [1, 4]: A (100) | Insecticidal effect, Test Example 2 [2, 5]: A (100) | Insecticidal effect, Test Example 3 [3, 6]: A (100)

Cc1cc(C(F)(C(F)(F)F)C(F)(F)F)ccc1NC(=O)c1ccc(F)c(Cl)c1C(=O)NC(C)C [compound 1229]
Insecticidal effect, Test Example 1 [1, 7]: A (100) | Insecticidal effect, Test Example 2 [2, 8]: A (100) | Insecticidal effect, Test Example 3 [3, 9]: A (100)

CC(C)NC(=O)c1c(Cl)cccc1C(=O)Nc1ccc(C(F)(F)C(F)(F)F)cc1F [compound 1382]
Insecticidal effect, Test Example 1 [1, 7]: A (100) | Insecticidal effect, Test Example 2 [2, 8]: A (100) | Insecticidal effect, Test Example 3 [3, 9]: A (100)

CC(C)(C)NC(=O)c1c(I)cccc1C(=O)Nc1ccc(C(O)(C(F)(F)F)C(F)(F)F)cc1 [compound 1054]
Insecticidal effect, Test Example 1 [1, 7]: A (100) | Insecticidal effect, Test Example 2 [2, 8]: A (100) | Insecticidal effect, Test Example 3 [3, 9]: A (100)

CCN(CC)C(=O)c1cccc([N+](=O)[O-])c1C(=O)Nc1ccc(C(F)(F)C(F)(F)F)cc1C [compound 1551]
Insecticidal effect (Test Example 1), judged from mortality [1]: A (100) | Insecticidal effect (Test Example 2), judged from mortality [2, 5]: D (79-50) | Insecticidal effect (Test Example 3), judged from mortality [3, 6]: A (100)

Cc1cc(Br)ccc1NC(=O)c1cccc(Br)c1C(=O)NC(C)C [compound 272]
Insecticidal effect, Test Example 1 [1, 4]: A (100) | Insecticidal effect, Test Example 2 [2, 5]: A (100) | Insecticidal effect, Test Example 3 [3, 6]: A (100)

Cc1cc(OC(F)(F)C(F)C(F)(F)F)ccc1NC(=O)c1c(Br)cccc1C(=O)NC(C)C (stereo not drawn) [compound 328]
Insecticidal effect, Test Example 1 [1, 4]: A (100) | Insecticidal effect, Test Example 2 [2, 5]: A (100) | Insecticidal effect, Test Example 3 [3, 6]: A (100)
